Reference: article PMC6572064, “Discovery of 2-(1-(3-(4-Chloroxyphenyl)-3-oxo- propyl)pyrrolidine-3-yl)-1H-benzo[d]imidazole-4-carboxamide: A Potent Poly(ADP-ribose) Polymerase (PARP) Inhibitor for Treatment of Cancer” (Molecules, 2019)
Like-named read-outs stand apart in the source and are kept apart here.

Key:
PARP-1 = biological target: T1, PARP-1 (Homo sapiens, UniProt P09874); test: PARP-1 inhibition assay (PARP-1 Chemiluminescent Assay Kit, BPS Bioscience); type: biochemical
T1 construct: purchased BPS Bioscience 80569
Description: (§1) The PARP-1 and PARP-2 inhibition assays were performed in outsourcing, by a CRO company, Shanghai Medicilon Inc. (Shanghai, China). […] Briefly, PARP-1 or PARP-2 biotinylated substrate was incubated with compounds or solvent control at varying concentrations and an assay buffer containing the PARP-1 or PARP-2 enzyme.

[1] = system: CAPAN-1 (a BRCA-2-mutated pancreatic cancer cell line); test: Cell proliferation assay, three-day, CellTiter-Glo, CAPAN-1; type: cell-based
Method in brief: (§2)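 Cells seeded overnight in 384-well plates, then exposed to compounds (DMSO stock diluted in medium) for 72 h at 37 °C, 5% CO2. Viability read as CellTiter-Glo luminescence after 60 min at room temperature.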

PARP-2 = biological target: T2, PARP-2 (Homo sapiens, UniProt Q9UGN5); test: PARP-2 inhibition assay (PARP-2 Chemiluminescent Assay Kit, BPS Bioscience); type: biochemical
T2 construct: purchased BPS Bioscience 80552
Description: as §1

[2] = system: MDA-MB-436 (a BRCA-1-mutated breast cancer cell line); test: Cell proliferation assay, three-day, CellTiter-Glo, MDA-MB-436; type: cell-based; conditions: for IC50 / inhibition at 0.00508 µM / inhibition at 0.0152 µM / inhibition at 0.0457 µM / inhibition at 0.41 µM / inhibition at 1.23 µM / inhibition at 3.7 µM / inhibition at 11.11 µM / inhibition at 33.33 µM / inhibition at 100 µM: Homo sapiens
Method in brief: as §2

[3] = Homo sapiens, CAPAN-1, read-out: Inh % 1
[4] = Homo sapiens, CAPAN-1, read-out: Inh % 2

T2 sequence (Q9UGN5 whole entry): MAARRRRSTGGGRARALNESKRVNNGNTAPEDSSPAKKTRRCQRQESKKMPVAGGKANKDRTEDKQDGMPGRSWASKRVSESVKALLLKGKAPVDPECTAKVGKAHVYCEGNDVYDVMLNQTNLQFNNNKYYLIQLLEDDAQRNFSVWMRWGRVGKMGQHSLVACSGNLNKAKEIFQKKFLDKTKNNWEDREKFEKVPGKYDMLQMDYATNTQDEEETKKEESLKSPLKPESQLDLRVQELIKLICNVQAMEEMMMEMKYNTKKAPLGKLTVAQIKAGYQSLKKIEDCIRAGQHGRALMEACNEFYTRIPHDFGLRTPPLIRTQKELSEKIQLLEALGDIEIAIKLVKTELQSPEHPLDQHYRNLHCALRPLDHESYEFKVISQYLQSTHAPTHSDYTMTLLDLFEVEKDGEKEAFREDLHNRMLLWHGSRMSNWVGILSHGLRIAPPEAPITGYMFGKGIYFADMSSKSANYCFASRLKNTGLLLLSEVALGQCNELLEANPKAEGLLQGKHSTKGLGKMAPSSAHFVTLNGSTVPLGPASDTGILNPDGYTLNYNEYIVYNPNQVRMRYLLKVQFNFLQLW
T1 sequence (P09874 whole entry): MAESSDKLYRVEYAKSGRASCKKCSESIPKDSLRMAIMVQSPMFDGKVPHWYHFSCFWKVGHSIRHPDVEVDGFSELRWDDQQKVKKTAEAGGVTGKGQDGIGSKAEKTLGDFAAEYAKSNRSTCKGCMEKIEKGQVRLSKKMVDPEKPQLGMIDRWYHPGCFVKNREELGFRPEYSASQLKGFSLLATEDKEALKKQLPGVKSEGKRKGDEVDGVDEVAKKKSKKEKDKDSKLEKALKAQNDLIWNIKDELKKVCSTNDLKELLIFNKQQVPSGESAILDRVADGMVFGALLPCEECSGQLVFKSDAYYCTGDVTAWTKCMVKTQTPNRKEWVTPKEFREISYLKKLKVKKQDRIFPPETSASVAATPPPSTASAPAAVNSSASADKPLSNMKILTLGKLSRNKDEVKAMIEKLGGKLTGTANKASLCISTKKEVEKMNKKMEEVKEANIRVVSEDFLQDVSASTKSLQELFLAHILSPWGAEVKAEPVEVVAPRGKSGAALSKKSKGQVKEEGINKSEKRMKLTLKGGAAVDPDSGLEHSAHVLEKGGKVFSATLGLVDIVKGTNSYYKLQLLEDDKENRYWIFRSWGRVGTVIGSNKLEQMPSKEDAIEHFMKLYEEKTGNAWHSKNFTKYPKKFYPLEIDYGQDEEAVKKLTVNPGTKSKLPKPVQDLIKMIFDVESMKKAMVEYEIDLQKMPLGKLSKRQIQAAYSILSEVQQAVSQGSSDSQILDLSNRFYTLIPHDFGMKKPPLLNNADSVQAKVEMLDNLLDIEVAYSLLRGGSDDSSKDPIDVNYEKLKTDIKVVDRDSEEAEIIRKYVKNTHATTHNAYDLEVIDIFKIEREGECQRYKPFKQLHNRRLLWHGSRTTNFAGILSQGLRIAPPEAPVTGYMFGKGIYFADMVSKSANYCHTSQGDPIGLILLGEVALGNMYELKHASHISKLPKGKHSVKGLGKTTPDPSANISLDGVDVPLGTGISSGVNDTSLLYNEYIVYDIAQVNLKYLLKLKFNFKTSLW

For NC(=O)c1cccc2[nH]c(C3CCN(CCC(O)c4ccccc4)C3)nc12 (centres unmarked) [Compound 5cg, 2-(1-(3-Hydroxy-3-phenylpropyl)pyrrolidin-3-yl)-1H-benzo[d]imi-dazole-4-carboxamide], the inhibition at 0.01 µM (PARP-1; read-out: 10 nM inhibition% PAPR-1) was -2.11%, the inhibition at 0.01 µM (PARP-1; read-out: PARP-1 Inhibition % (10 nM)) was -2.1% and the LogIC50 ([1]; CAPAN-1, curve-fit output, Log (uM)) was 2.199. For the same compound, the IC50 ([1]; Homo sapiens, CAPAN-1, 72 h, read-out: CAPAN-1 IC50 (μM)) was > 100 µM, the inhibition at 0.00508 µM [1, 3] was 4.5% and the inhibition at 0.0152 µM [1, 3] was 16.3%. For the same compound, the inhibition at 0.0457 µM [1, 3] was 5.6%, the inhibition at 0.41 µM [1, 3] was 14.3% and the inhibition at 1.23 µM [1, 3] was 11.4%. It also gave an inhibition at 3.7 µM [1, 3] of 16.5%, an inhibition at 11.11 µM [1, 3] of 22% and an inhibition at 33.33 µM [1, 3] of 33.5%. The inhibition at 100 µM [1, 3] was 47.6%, the inhibition at 0.00508 µM [1, 4] was -5.2% and the inhibition at 0.0152 µM [1, 4] was -0.0618%. The inhibition at 0.0457 µM [1, 4] was 0.1%, the inhibition at 0.41 µM [1, 4] was 8.8% and the inhibition at 1.23 µM [1, 4] was 2.5%. The inhibition at 3.7 µM [1, 4] was 5.4%, the inhibition at 11.11 µM [1, 4] was -1.6% and the inhibition at 33.33 µM [1, 4] was 14%. It also gave an inhibition at 100 µM [1, 4] of 38.6%, an inhibition at 0.01 µM (PARP-2; read-out: 10 nM inhibition% PAPR-2) of 6.45% and an inhibition at 0.01 µM (PARP-2; read-out: PARP-2 Inhibition % (10 nM)) of 6.5%. The IC50 ([2]; MDA-MB-436) was 74.1 µM, the IC50 ([2]; MDA-MB-436, 72 h) was 74.1 µM and the IC50 ([2]; MDA-MB-436, 72 h, read-out: MDA-MB-436 IC50 (μM)) was 74.1 µM. It also gave an inhibition at 0.00508 µM ([2]; MDA-MB-436, read-out: Inh % 1) of 2.1%, an inhibition at 0.0152 µM ([2]; MDA-MB-436, read-out: Inh % 1) of -3.5% and an inhibition at 0.0457 µM ([2]; MDA-MB-436, read-out: Inh % 1) of -5.7%. It also gave an inhibition at 0.41 µM ([2]; MDA-MB-436, read-out: Inh % 1) of -16.8%, an inhibition at 1.23 µM ([2]; MDA-MB-436, read-out: Inh % 1) of -6% and an inhibition at 3.7 µM ([2]; MDA-MB-436, read-out: Inh % 1) of -10.1%. The inhibition at 11.11 µM ([2]; MDA-MB-436, read-out: Inh % 1) was 0.536%, the inhibition at 33.33 µM ([2]; MDA-MB-436, read-out: Inh % 1) was 21.6% and the inhibition at 100 µM ([2]; MDA-MB-436, read-out: Inh % 1) was 68%. The inhibition at 0.00508 µM ([2]; MDA-MB-436, read-out: Inh % 2) was -5%, the inhibition at 0.0152 µM ([2]; MDA-MB-436, read-out: Inh % 2) was -7% and the inhibition at 0.0457 µM ([2]; MDA-MB-436, read-out: Inh % 2) was -13.4%. For the same compound, the inhibition at 0.41 µM ([2]; MDA-MB-436, read-out: Inh % 2) was -9.8%, the inhibition at 1.23 µM ([2]; MDA-MB-436, read-out: Inh % 2) was -9.1% and the inhibition at 3.7 µM ([2]; MDA-MB-436, read-out: Inh % 2) was -17.7%. The inhibition at 11.11 µM ([2]; MDA-MB-436, read-out: Inh % 2) was -6.9%, the inhibition at 33.33 µM ([2]; MDA-MB-436, read-out: Inh % 2) was 10.8% and the inhibition at 100 µM ([2]; MDA-MB-436, read-out: Inh % 2) was 46.7%. For the same compound, the LogIC50 ([2]; MDA-MB-436, curve fit on Log (uM) concentrations) was 1.87 and the Top ([2]; MDA-MB-436, curve fit parameter (Inh %), '= 100.0' is a constrained value) was “= 100.0”.
